Assay results published in patent US7323541B2, “Polypeptide DNA thereof and use of the same” (Takeda Pharmaceutical Company Limited, priority 2001, dated 2008).
Residue numbers refer to the chain shown, from its start. Where no end group is shown, it is not given here.

How the values were obtained:
Type in all cases: cell-based
[1] = target: T1, TGR23-2 expressing CHO cells (Homo sapiens, UniProt Q6W5P4, N107I/Q344R); test: Enhancing activity of arachidonic acid metabolite release
T1 construct: the clones having the cDNA of TGR23-2, which is contained in pTB2174, were selected; expressed in transfected cells; host or cells: hamster CHO/dhfr- cells, vector pAKKO-111H (pAKKO-TGR23-2)
T1 sequence (Q6W5P4 1-371 N107I/Q344R): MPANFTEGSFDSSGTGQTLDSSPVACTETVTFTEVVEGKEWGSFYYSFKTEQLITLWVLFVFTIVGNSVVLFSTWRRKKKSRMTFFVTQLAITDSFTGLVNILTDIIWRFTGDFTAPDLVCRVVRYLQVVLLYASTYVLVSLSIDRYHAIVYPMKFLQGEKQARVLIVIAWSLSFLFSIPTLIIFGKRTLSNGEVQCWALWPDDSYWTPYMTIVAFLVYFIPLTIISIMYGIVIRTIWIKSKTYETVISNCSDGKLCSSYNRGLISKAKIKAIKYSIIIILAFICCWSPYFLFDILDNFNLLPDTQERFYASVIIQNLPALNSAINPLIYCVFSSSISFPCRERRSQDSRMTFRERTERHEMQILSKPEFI
Experimental: The CHO/TGR23-2 cells prepared in Example 1 and selected in Example 2 were plated on 24-well plate at 5×10^4 cells/well and cultured for 24 hours. After removing the medium, αMEM medium (pH7.4) supplemented with 0.5 μCi/ml [^3H] arachidonic acid, 10% dialyzed FBS, 20 mM HEPES and 0.5% BSA was added to the cells at 500 μl/well. Subsequently, the cells were incubated for 16 hours in the incubator. After the culture medium containing [^3H] arachidonic acid was discarded, 500 μl/well of αMEM medium (pH7.4) supplemented with 20 mM HEPES and 0.5% BSA were added, and the cells were incubated for 4 hours in the incubator. […] Three milliliters of liquid scintilator were added to the supernatant described above to measure the radioactivity. Based on this measured value, a calculation was made using the following formula, and the promoting activity of arachidonic acid metabolite release was represented by % of control. The activity of the sample-adding group was calculated using a control value configured in each plate. % of control=[…]
X: The radioactivity in the sample-adding group
C: The means of the radioactivity in 4 wells of control (no sample) […]

[2] = target: T2, TGR23-1 expressing CHO cells (Homo sapiens, UniProt Q6W5P4); test: Enhancing activity of intracellular cAMP production
T2 construct: the clones having the cDNA of TGR23-1, which is contained in pTB2173, were selected; expressed in transfected cells; host or cells: hamster CHO/dhfr- cells, vector pAKKO-111H (pAKKO-TGR23-1), clones No. 49 and No. 52
T2 sequence (Q6W5P4 1-371): T1 sequence (Q6W5P4 1-371 N107I/Q344R) with I107N, R344Q
Experimental: The CHO/TGR23-2 cells prepared in Example 1 and selected in Example 2 were plated on 24-well plate at 7×10^4 cells/well and cultured for 48 hours. The cells were washed with αMEM medium (pH7.5) containing 0.2 mM 3-isobutyl-methylxanthine, 0.05% BSA and 20 mM HEPES (hereafter, αMEM medium (pH7.5) containing 0.2 mM 3-isobutyl-methylxanthine, 0.05% BSA and 20 mM HEPES may be referred to as a reaction buffer). Subsequently, 0.5 ml of the reaction buffer was added, and the solution was incubated for 30 minutes in the incubator. The reaction buffer was removed and 0.25 ml of the reaction buffer was freshly added to the cells. Then, the cells were admixed with a sample and 0.25 ml of the reaction buffer containing 2 μM forskoline, and incubated at 37° C. for 30 minutes. Intracellular cAMP was extracted by removing the reaction solution and adding 0.5 ml of the solution for cell lysis attached with cAMP EIA Kit (Applied Biosystems). The cAMP level in the extract was quantified with the same kit. Based on this measured value, a calculation was made using the following formula, and the enhancing/inhibiting activity for cAMP production was represented by % of control. The activity of the sample-adding group was calculated using a control value configured in each plate. % of control=(X−C)/(T−C)×100
X: The cAMP level in the sample-adding group
T: The means of the cAMP level in 3 wells of positive control (no sample, with stimulus of forskoline)
C: The means of the cAMP level in 3 wells of negative control (no sample, without stimulus of forskoline)
Human TGR23-2 ligand (1-20) prepared by the method described in Example 17 was administered to TGR23-1 expressing CHO cells and TGR23-2 expressing CHO cells at a variety of concentrations according to the method described in Example 3, and the enhancing activity of intracellular cAMP production was determined. […]

[3] = target: T2, TGR23-1 expressing CHO cells; test: Enhancing activity of arachidonic acid metabolite release

enhancing activity of intracellular cAMP production ([2]; with forskolin) | Sequence | enhancing activity of arachidonic acid metabolite release [1] | enhancing activity of intracellular cAMP production ([2]; no forskolin) | enhancing activity of arachidonic acid metabolite release [3]
 | SFRNGVGSGVKKTSFRRA [rat TGR23-2 ligand (1-18), Ser-Phe-Arg-Asn-Gly-Val-Gly-Ser-Gly-Val-Lys-Lys-Thr-Ser-Phe-Arg-Arg-Ala] | enhance the arachidonic acid metabolite release | enhance the intracellular cAMP production | enhance the arachidonic acid metabolite release
clearly enhances cAMP production | SFRNGVGTGMKKTSFQRAKS [human TGR23-2 ligand (1-20)] | enhance the arachidonic acid metabolite release | enhance the intracellular cAMP production | enhance the arachidonic acid metabolite release
